These results are taken from ChEMBL document CHEMBL6087386, “Radioprotective effectiveness of a novel delta-tocotrienol prodrug on mouse hematopoietic system against 60Co gamma-ray irradiation through inducing granulocyte-colony stimulating factor production” (Eur J Med Chem, 2024).

The test system of data set [1] is Mus musculus. The data set can be described thus: Induction of G-CSF production in C57BL/6J mouse model at 100 mg/kg, ip measured for 24 hrs by ELISA analysis. The class given is functional, organism-based.
The test system of data set [2] is Mus musculus. The experiment in a line: Radioprotective activity in C57BL/6J mouse assessed as survival rate at 100 mg/kg, sc preincubated with compound for 24 hrs followed by total body irradiation with 8.5 Gy and measured after 20 days by Kaplan-meier plot analysis. In kind it is functional. The conditions noted are these: light or radiation study, 504 h, time 21 day.

Data set [3] has as its system Mus musculus. The data set can be described thus: Induction of G-CSF production in C57BL/6J mouse model at 100 mg/kg, sc measured for 24 hrs by ELISA analysis. In kind it is functional, organism-based.
Data set [4] can be described thus: Stability in C57BL/6J mouse whole blood assessed as half-life. The class given is ADME, tissue-based.
The subject of data set [5] is Mus musculus. The experiment in a line: Radioprotective activity in C57BL/6J mouse assessed as survival rate at 100 mg/kg, sc preincubated with compound for 24 hrs followed by total body irradiation with 8.5 Gy and measured after 30 days by Kaplan-meier plot analysis. The conditions noted are these: time 31 day; for survival at 100 mg/kg: Mus musculus, C57BL/6J, light or radiation study, 744 h. The class given is functional.

Data set [6] is described as follows: Stability in C57BL/6J mouse plasma assessed as half-life. In kind it is ADME, cell-free.
The nature of data set [7]: Stability in […] human plasma assessed as half-life. The class given is ADME, cell-free.

The source made the active and inactive calls. No cut-off for these calls is given here.

With `Cc1c(O)cc2c(c1C)O[C@](C)(CCCC(C)CCCC(C)CCCC(C)C)CC2` (some centres undefined), the outcome in the data set with Mus musculus [1] was inactive.

Regarding `Cc1cc(O)c(C)c2c1O[C@](C)(CCCC(C)CCCC(C)CCCC(C)C)CC2` (some centres undefined), the outcome in the data set on Mus musculus [1] was inactive.

For the compound `CC(C)=CCC/C(C)=C/CC/C(C)=C/CC[C@]1(C)CCc2cc(OC(=O)CCCCCC(=O)O)cc(C)c2O1`, the survival at 100 mg/kg in the data set with Mus musculus [2] was 70%; with Mus musculus [5], 90%. Besides, in the data set on Mus musculus [3], the outcome was Active. In addition, in data set [4], the half-life was determined as 8.6 min.

As to `CC(C)=CCC/C(C)=C/CC/C(C)=C/CC[C@]1(C)CCc2cc(OCCCCCO)cc(C)c2O1`, the outcome in the data set on Mus musculus [3] was Active.

As to `CC(C)=CCC/C(C)=C/CC/C(C)=C/CC[C@]1(C)CCc2cc(OC(=O)c3ccncc3)cc(C)c2O1`, the result with Mus musculus [3] was Active.

Regarding `CC(C)=CCC/C(C)=C/CC/C(C)=C/CC[C@]1(C)CCc2cc(OC(=O)C3CCNCC3)cc(C)c2O1`, the survival at 100 mg/kg in the data set with Mus musculus [2] and with Mus musculus [5] was 70% each time. Also, the result in the data set on Mus musculus [3] was Active.

Turning to `CC(C)=CCC/C(C)=C/CC/C(C)=C/CC[C@]1(C)CCc2cc(OCCN(C)C)cc(C)c2O1`, the outcome in the data set with Mus musculus [3] was Active.

Turning to `CC(C)=CCC/C(C)=C/CC/C(C)=C/CC[C@]1(C)CCc2cc(OC(=O)Cc3cccnc3)cc(C)c2O1`, the outcome in the data set on Mus musculus [3] was Active.

As for `CCN(CC)CCOC(=O)c1ccc(N)cc1` [PROCAINE], the half-life in data set [6] is 13.2 min; in data set [4], 12.3 min; in data set [7] it was 0.7 min.

As for `Cc1c(C)c2c(c(C)c1O)CC[C@@](C)(CCCC(C)CCCC(C)CCCC(C)C)O2` (some centres undefined), the outcome in the data set on Mus musculus [1] was inactive.

For `CC(C)=CCC/C(C)=C/CC/C(C)=C/CC[C@]1(C)CCc2cc(OCCCO)cc(C)c2O1`, the survival at 100 mg/kg with Mus musculus [2] worked out at 70%. In the data set on Mus musculus [3], the outcome was Active. Also, in the data set on Mus musculus [5], the Activity came out at 80%.

On to `CC(C)=CCC/C(C)=C/CC/C(C)=C/CC[C@]1(C)CCc2cc(OC(=O)CCC(N)=O)cc(C)c2O1`, for which, in the data set with Mus musculus [3], the outcome was Active.

As for `CC(C)=CCC/C(C)=C/CC/C(C)=C/CC[C@]1(C)CCc2cc(OC(=O)CN(C)C)cc(C)c2O1`, in the data set with Mus musculus [2], the survival at 100 mg/kg is 70%. In addition, the outcome in the data set with Mus musculus [3] was Active.

`CC(C)=CCC/C(C)=C/CC/C(C)=C/CC[C@]1(C)CCc2cc(OC(=O)/C=C/C(=O)O)cc(C)c2O1`: the survival at 100 mg/kg with Mus musculus [2] was determined as 70%; with Mus musculus [5], 90%. Also, in the data set with Mus musculus [3], the outcome was Active. In addition, in data set [4], the half-life was found to be 24.1 min.

For `CC(C)=CCC/C(C)=C/CC/C(C)=C/CC[C@]1(C)CCc2cc(OCCN)cc(C)c2O1`, the result in the data set with Mus musculus [3] was Active.

With `CC(C)=CCC/C(C)=C/CC/C(C)=C/CC[C@]1(C)CCc2c(C)c(O)cc(C)c2O1`, the outcome with Mus musculus [3] was Active.

Turning to `Cc1cc(O)cc2c1O[C@](C)(CCCC(C)CCCC(C)CCCC(C)C)CC2` (some centres undefined), the outcome in the data set on Mus musculus [1] was inactive.

As for `CC(C)=CCC/C(C)=C/CC/C(C)=C/CC[C@]1(C)CCc2cc(OCC(=O)O)cc(C)c2O1`, the result in the data set with Mus musculus [3] was Active.

Regarding `CC(C)=CCC/C(C)=C/CC/C(C)=C/CC[C@]1(C)CCc2c(C)c(O)c(C)c(C)c2O1`, in the data set with Mus musculus [1], the outcome was inactive.

For `CC(C)=CCC/C(C)=C/CC/C(C)=C/CC[C@]1(C)CCc2cc(OC(=O)c3ccccn3)cc(C)c2O1`, the result with Mus musculus [3] was Active.

On to `CC(C)=CCC/C(C)=C/CC/C(C)=C/CC[C@]1(C)CCc2cc(OCCCCO)cc(C)c2O1`, for which the result in the data set on Mus musculus [3] was Active.

Regarding `CCCC(CCC)C(=O)Oc1cc(C)c2c(c1)CC[C@@](C)(CC/C=C(\C)CC/C=C(\C)CCC=C(C)C)O2`, the outcome with Mus musculus [3] was Active.

Take `CC(C)=CCC/C(C)=C/CC/C(C)=C/CC[C@]1(C)CCc2cc(OC(=O)C3CCN(C)CC3)cc(C)c2O1`: the outcome in the data set with Mus musculus [3] was Active.

`CC(C)=CCC/C(C)=C/CC/C(C)=C/CC[C@]1(C)CCc2cc(OCCCC(=O)O)cc(C)c2O1`: the outcome with Mus musculus [3] was Active.

For `CC(C)=CCC/C(C)=C/CC/C(C)=C/CC[C@]1(C)CCc2cc(OC(=O)CCCC(=O)O)cc(C)c2O1`, the survival at 100 mg/kg in the data set on Mus musculus [2] amounted to 70%. Besides, the outcome with Mus musculus [3] was Active. The half-life in data set [4] came out at 5.5 min.

Regarding `CC(C)=CCC/C(C)=C/CC/C(C)=C/CC[C@]1(C)CCc2cc(OC(=O)c3cccnc3)cc(C)c2O1`, the result with Mus musculus [3] was Active.

Regarding `CC(C)=CCC/C(C)=C/CC/C(C)=C/CC[C@]1(C)CCc2cc(OCC(C)(C)C(=O)O)cc(C)c2O1`, in the data set on Mus musculus [3], the result was Active.

On to `COC(=O)CCC(=O)Oc1cc(C)c2c(c1)CC[C@@](C)(CC/C=C(\C)CC/C=C(\C)CCC=C(C)C)O2`, for which the half-life in data set [4] was determined as 30.3 min.

In the case of `CC(C)=CCC/C(C)=C/CC/C(C)=C/CC[C@]1(C)CCc2cc(OC(=O)CC(C)(C)C(=O)O)cc(C)c2O1`, in the data set with Mus musculus [2], the survival at 100 mg/kg came out at 70%. Besides, the result in the data set with Mus musculus [3] was Active.

With `CNCCOc1cc(C)c2c(c1)CC[C@@](C)(CC/C=C(\C)CC/C=C(\C)CCC=C(C)C)O2`, in the data set with Mus musculus [3], the result was Active.

`CC(C)=CCC/C(C)=C/CC/C(C)=C/CC[C@]1(C)CCc2cc(OCCC(=O)O)cc(C)c2O1`: the result in the data set on Mus musculus [3] was Active.

Take `CC(=O)Oc1cc(C)c2c(c1)CC[C@@](C)(CC/C=C(\C)CC/C=C(\C)CCC=C(C)C)O2`: in the data set with Mus musculus [3], the result was Active.

Consider `CC(C)=CCC/C(C)=C/CC/C(C)=C/CC[C@]1(C)CCc2cc(OCCCCC(=O)O)cc(C)c2O1`, for which the outcome in the data set on Mus musculus [3] was Active.

`CC(C)=CCC/C(C)=C/CC/C(C)=C/CC[C@]1(C)CCc2cc(OC(=O)CCCCC(=O)O)cc(C)c2O1`: the survival at 100 mg/kg with Mus musculus [2] is 70%. Further, in the data set on Mus musculus [3], the result was Active. Moreover, the half-life in data set [4] amounted to 2.1 min.

With `CC(C)=CCC/C(C)=C/CC/C(C)=C/CC[C@]1(C)CCc2cc(O)c(C)c(C)c2O1`, the result in the data set on Mus musculus [3] was Active.

Regarding `CC(C)=CCC/C(C)=C/CC/C(C)=C/CC[C@]1(C)CCc2cc(OCC(C)(C)CO)cc(C)c2O1`, the outcome in the data set on Mus musculus [3] was Active.
